Test results reported in patent US20240059671A1, “TYROSINE KINASE 2 (TYK2) DEGRADATION COMPOUNDS AND METHODS OF USE” (CULLGEN (SHANGHAI), INC., priority 2020, published 2024).
Entries after “also recorded” stand apart in the source; their conditions may differ.

Assays:
Assay type in all cases: cell-based
JAK1, JAK2, and JAK3 = assay: Immunoblot of JAK1/2/3 protein levels in MOLT-4 cells (selectivity of TYK2 reduction); conditions: MOLT-4 cells, 0.04, 0.2, 1, and 5 μM, 24 hours
Method: MOLT-4 cells were treated with CPD-038, CPD-039, and CPD-040 at 0.04, 0.2, 1, and 5 μM concentrations for 24 hours.
(§1) Rabbit anti-JAK1antibody (3344S), anti-JAK2 antibody (3230S), anti-JAK3 antibody (8827S), anti-TYK2 antibody (14193S), anti-STAT1 antibody (9167S), anti-STAT3 antibody (9139S), anti-phospho-STAT1 (Tyr701) antibody ([…]), anti-phospho-STAT3 (Tyr705) antibody (9145S), were purchased from Cell Signaling Technology; anti-β-actin antibody (ab8226) was from Abeam; HRP-conjugated anti-α-Tubulin (GNI4310-AT) antibody was purchased from GNI. Media and other cell culture reagents were purchased from Thermo Fisher.
(§2) Cultured cells were washed with cold PBS once and lysed in cold RIPA buffer supplemented with protease inhibitors and phosphatase inhibitors (Beyotime Biotechnology). The solutions were then incubated at 4° C. for 30 minutes with gentle agitation to fully lyse cells. Cell lysates were centrifuged at 13,000 rpm for 10 minutes at 4° C. and pellets were discarded. Total protein concentrations in the lysates were determined by BCA assays (Beyotime Biotechnology). Cell lysates were mixed with Laemmli loading buffer to 1× and heated at 99° C. for 5 min. Proteins were resolved on SDS-PAGE and visualized by chemiluminescence. Images were taken by a ChemiDoc MP Imaging system (Bio-Rad). Protein bands were quantitated using the accompanied software provided by Bio-Rad.

TYK2 [1] = biological target: T1, TYK2 (Homo sapiens, UniProt P29597); assay: TYK2 protein degradation in MOLT-4 cells by immunoblotting; set-up: endogenous in cells; host or cells: MOLT-4; conditions: 24 hours
T1 sequence (P29597 whole entry): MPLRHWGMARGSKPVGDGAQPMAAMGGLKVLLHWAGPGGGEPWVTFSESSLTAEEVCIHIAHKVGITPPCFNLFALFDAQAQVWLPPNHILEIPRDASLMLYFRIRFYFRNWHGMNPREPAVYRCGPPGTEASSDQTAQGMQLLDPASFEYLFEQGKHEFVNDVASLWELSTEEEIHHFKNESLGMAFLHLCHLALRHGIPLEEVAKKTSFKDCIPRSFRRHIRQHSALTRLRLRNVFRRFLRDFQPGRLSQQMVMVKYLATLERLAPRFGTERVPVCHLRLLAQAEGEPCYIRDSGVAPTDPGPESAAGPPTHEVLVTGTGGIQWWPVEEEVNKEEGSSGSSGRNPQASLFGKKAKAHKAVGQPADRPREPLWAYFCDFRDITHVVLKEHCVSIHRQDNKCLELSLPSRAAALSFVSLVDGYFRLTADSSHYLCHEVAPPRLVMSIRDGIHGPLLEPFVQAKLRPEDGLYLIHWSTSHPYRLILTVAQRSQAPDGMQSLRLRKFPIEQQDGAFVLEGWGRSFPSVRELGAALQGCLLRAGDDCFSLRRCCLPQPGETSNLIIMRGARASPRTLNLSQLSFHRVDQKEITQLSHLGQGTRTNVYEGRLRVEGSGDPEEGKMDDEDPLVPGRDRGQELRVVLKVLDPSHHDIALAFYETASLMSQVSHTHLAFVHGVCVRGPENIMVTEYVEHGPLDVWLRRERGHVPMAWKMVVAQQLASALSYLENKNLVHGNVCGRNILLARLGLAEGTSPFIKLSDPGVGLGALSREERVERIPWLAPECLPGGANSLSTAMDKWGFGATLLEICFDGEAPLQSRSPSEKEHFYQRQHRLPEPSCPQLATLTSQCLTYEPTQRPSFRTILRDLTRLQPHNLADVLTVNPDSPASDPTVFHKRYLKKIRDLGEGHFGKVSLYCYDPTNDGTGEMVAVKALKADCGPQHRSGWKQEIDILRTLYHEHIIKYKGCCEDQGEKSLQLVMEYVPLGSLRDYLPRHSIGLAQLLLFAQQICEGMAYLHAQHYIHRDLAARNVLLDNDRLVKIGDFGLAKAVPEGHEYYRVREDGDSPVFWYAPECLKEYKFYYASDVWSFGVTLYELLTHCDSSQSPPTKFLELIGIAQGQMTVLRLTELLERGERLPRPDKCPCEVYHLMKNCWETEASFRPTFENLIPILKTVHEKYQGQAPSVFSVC
Procedure, shortened: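 MOLT-4 cells were exposed to compounds at 0.5 and 5 μM for 24 h, then lysed in RIPA buffer with protease and phosphatase inhibitors. TYK2 was detected by SDS-PAGE immunoblot with chemiluminescence, and band densitometry gave percent degradation.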

TYK2 [2] = biological target: T1, TYK2; assay: TYK2 protein degradation in NOMO-1 cells by immunoblotting; set-up: endogenous in cells; conditions: for TYK2 Degradation (NOMO-1, 10 nM) / TYK2 Degradation (NOMO-1, 100 nM): NOMO-1 cells; for Reduction of TYK2 protein levels over a dose range (FIG. 2): NOMO-1 cells, 0.1, 1, 10, 100 and 1000 nM, 16 hours
Procedure, shortened: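 NOMO-1 cells in RPMI 1640 with 10% FBS were exposed to compound at 0.1–1000 nM for 16 hours. TYK2 levels in RIPA lysates were measured by SDS-PAGE immunoblot with chemiluminescent detection and band densitometry.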

[3] = tested on: phosphorylation of STAT1 (Tyr701) and STAT3 (Tyr705); assay: IFNα-induced STAT1/3 phosphorylation in Jurkat cells by immunoblotting; conditions: 3 or 30 nM, 16 hours, then IFNα (2000 IU) for 15 min
Method: (§3) Jurkat cells were treated with DMSO or a dose range of heterobifunctional compounds CPD-155, CPD-158, and CPD-164 at 3 or 30 nM concentrations for 16 hours. Cells were subsequently treated with IFNα (2000 IU) for 15 min as indicated.
as §1, §2

TYK2 [4] = biological target: T1, TYK2; assay: TYK2 protein levels in Jurkat cells by immunoblotting; set-up: endogenous in cells; conditions: 3 or 30 nM, 16 hours
Method: as §3, §2

TYK2 Degradation (NOMO-1, 10 nM) (TYK2 [2])	TYK2 protein levels in Jurkat cells (FIG. 3) (TYK2 [4])	SMILES	Selectivity of TYK2 protein reduction over JAK1, JAK2, and JAK3 (FIG. 1) (JAK1, JAK2, and JAK3)	TYK2 Degradation (0.5 μM) (TYK2 [1]; MOLT-4 cells, 0.5 μM)	TYK2 Degradation (5 μM) (TYK2 [1]; MOLT-4 cells, 5 μM)	Reduction of TYK2 protein levels over a dose range (FIG. 1) (TYK2 [1]; MOLT-4 cells, 0.04, 0.2, 1, and 5 μM)	TYK2 Degradation (NOMO-1, 100 nM) (TYK2 [2])	Reduction of TYK2 protein levels over a dose range (FIG. 2) (TYK2 [2])	Phosphorylation of STAT1 (Tyr701) and STAT3 (Tyr705) induced by IFNα (FIG. 3) [3]
–	–	CNC(=O)c1nnc(NC(=O)CNC(=O)CCCCCCCCC(=O)N[C@H](C(=O)N2C[C@H](O)C[C@H]2C(=O)NCc2ccc(-c3scnc3C)cc2)C(C)(C)C)cc1Nc1cccc(-c2ncn(C)n2)c1OC [CPD-040, N1-((S)-1-((2S,4R)-4-hydroxy-2-((4-(4-methylthiazol-5-yl)benzyl)carbamoyl)pyrrolidin-1-yl)-3,3-dimethyl-1-oxobutan-2-yl)-N10-(2-((5-((2-methoxy-3-(1-methyl-1H-1,2,4-triazol-3-yl)phenyl)amino)-6-(methylcarbamoyl)pyridazin-3-yl)amino)-2-oxoethyl)decanediamide]	very selective at the reduction protein levels of TYK2 over JAK1, JAK2, and JAK3; also recorded: highly selective at the degradation of TYK2 over JAKT/2/3 proteins	60%	60%	concentration-dependently reduced the TYK2 proteins levels; also recorded: reduce TYK2 protein levels in a concentration-dependent manner	–	–	–
A (A: ≥60% TYK2 degradation)	reduced levels of TYK2 proteins	CNC(=O)c1nnc(Nc2ccc(C(=O)NCCCCCNc3cccc4c3C(=O)N(C3CCC(=O)NC3=O)C4=O)cn2)cc1Nc1cccc(-c2ncn(C)n2)c1OC (stereo not drawn) [CPD-155, 6-((5-((5-((2-(2,6-dioxopiperidin-3-yl)-1,3-dioxoisoindolin-4-yl)amino)pentyl)carbamoyl)pyridin-2-yl)amino)-4-((2-methoxy-3-(1-methyl-1H-1,2,4-triazol-3-yl)phenyl)amino)-N-methylpyridazine-3-carboxamide]	–	–	–	–	A (A: ≥60% TYK2 degradation)	concentration-dependently reduced the TYK2 proteins levels; also recorded: highly potent in reducing TYK2 protein levels	concentration-dependently reduced phosphorylation of STAT1 (Tyr701) and STAT3 (Tyr705) induced by IFNα treatment; also recorded: significantly decreased STAT1/3 phosphorylation downstream of IFNα stimulation
A (A: ≥60% TYK2 degradation)	reduced levels of TYK2 proteins	CNC(=O)c1nnc(Nc2ccc(C(=O)NCCCCCCCCNc3cccc4c3C(=O)N(C3CCC(=O)NC3=O)C4=O)cn2)cc1Nc1cccc(-c2ncn(C)n2)c1OC (stereo not drawn) [CPD-158, 6-((5-((8-((2-(2,6-dioxopiperidin-3-yl)-1,3-dioxoisoindolin-4-yl)amino)octyl)carbamoyl)pyridin-2-yl)amino)-4-((2-methoxy-3-(1-methyl-1H-1,2,4-triazol-3-yl)phenyl)amino)-N-methylpyridazine-3-carboxamide]	–	–	–	–	B (B: <60% TYK2 degradation, and >20% TYK2 degradation)	concentration-dependently reduced the TYK2 proteins levels; also recorded: highly potent in reducing TYK2 protein levels	concentration-dependently reduced phosphorylation of STAT1 (Tyr701) and STAT3 (Tyr705) induced by IFNα treatment; also recorded: significantly decreased STAT1/3 phosphorylation downstream of IFNα stimulation
A (A: ≥60% TYK2 degradation)	reduced levels of TYK2 proteins	CNC(=O)c1nnc(Nc2ccc(C(=O)NCCCCCNc3ccc4c(c3)C(=O)N(C3CCC(=O)NC3=O)C4=O)cn2)cc1Nc1cccc(-c2ncn(C)n2)c1OC (stereo not drawn) [CPD-164, 6-((5-((5-((2-(2,6-dioxopiperidin-3-yl)-1,3-dioxoisoindolin-5-yl)amino)pentyl)carbamoyl)pyridin-2-yl)amino)-4-((2-methoxy-3-(1-methyl-1H-1,2,4-triazol-3-yl)phenyl)amino)-N-methylpyridazine-3-carboxamide]	–	–	–	–	B (B: <60% TYK2 degradation, and >20% TYK2 degradation)	–	concentration-dependently reduced phosphorylation of STAT1 (Tyr701) and STAT3 (Tyr705) induced by IFNα treatment; also recorded: significantly decreased STAT1/3 phosphorylation downstream of IFNα stimulation
